Where “and” joins values, the source holds several entries; their conditions need not be identical. Equal values may be shown once. Inconclusive results and toxic doses are left out. Cut-off read from the data, not from the text of the source: active = T/C of 150% or more; inactive = T/C below 125%. Numbered stars: 1 amine (or outer) side, 2 acyl side, 3 side chain; on linkers, the order of the positions; unused ones are H or OH. Bridge positions count the residues as written; N and C are the ends. Square brackets hold non-standard residues; d marks the D form. Peptide text beside a SMILES is read from it. * marks the point of attachment. X3 = CC(C)C(C)C(C(=O)[*:2])N(C)[*:1]; Picolinoyl(3-OH) = O=C(c1ncccc1O)*; NMePhg = CN[CH](C(=O)O)c1ccccc1; Hyp = O=C(O)[CH]1C[CH](O)CN1; Sar = CNCC(=O)O
System: L1210 leukemia ip in BDF1 mice, survival T/C
Test: NCI In Vivo Anticancer Drug Screen. Data for tumor model L1210 Leukemia (intraperitoneal) in B6D2F1 (BDF1) mice
Conditions: endpoint: mean survival time, higher = longer survival
Procedure, shortened: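 Tumor cells were implanted, animals were treated, and survival was followed. The result divides the treated measurement by the vehicle-control measurement.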

[1] = dose: 25.0 mg/kg/injection, schedule: Q04DX003 (ip), vehicle: saline
[2] = dose: 50.0 mg/kg/injection, schedule: Q04DX003 (ip), vehicle: saline
[3] = dose: 100.0 mg/kg/injection, schedule: Q01DX009 (ip), vehicle: Klucel (hydroxypropylcellulose) (HPC)
[4] = dose: 200.0 mg/kg/injection, schedule: Q01DX009 (ip), vehicle: Klucel (hydroxypropylcellulose) (HPC)
[5] = dose: 400.0 mg/kg/injection, schedule: Q01DX009 (ip), vehicle: Klucel (hydroxypropylcellulose) (HPC)
[6] = dose: 100.0 mg/kg/injection, schedule: Q01DX009 (ip), vehicle: saline with Tween-80
[7] = dose: 75.0 mg/kg/injection, schedule: Q01DX001 (ip), vehicle: saline
[8] = dose: 100.0 mg/kg/injection, schedule: Q04DX003 (ip), vehicle: Klucel (hydroxypropylcellulose) (HPC)
[9] = dose: 150.0 mg/kg/injection, schedule: Q01DX001 (ip), vehicle: saline
[10] = dose: 200.0 mg/kg/injection, schedule: Q04DX003 (ip), vehicle: Klucel (hydroxypropylcellulose) (HPC)
[11] = dose: 400.0 mg/kg/injection, schedule: Q04DX003 (ip), vehicle: Klucel (hydroxypropylcellulose) (HPC)
[12] = dose: 100.0 mg/kg/injection, schedule: Q01DX001 (ip), vehicle: Klucel (hydroxypropylcellulose) (HPC)
[13] = dose: 200.0 mg/kg/injection, schedule: Q01DX001 (ip), vehicle: Klucel (hydroxypropylcellulose) (HPC)
[14] = dose: 400.0 mg/kg/injection, schedule: Q01DX001 (ip), vehicle: Klucel (hydroxypropylcellulose) (HPC)
[15] = dose: 50.0 mg/kg/injection, schedule: Q04DX003 (ip), vehicle: Klucel (hydroxypropylcellulose) (HPC)
[16] = dose: 100.0 mg/kg/injection, schedule: Q04DX003 (ip), vehicle: saline with Tween-80
[17] = dose: 200.0 mg/kg/injection, schedule: Q04DX003 (ip), vehicle: saline with Tween-80

Measured: T/C

CCCCCCCCCCCCSC(SCCCCCCCCCCCC)c1ccc(OCC(=O)O)cc1
inactive: [1] 105 % of control | [2] 96 % of control | [3] 97 % of control | dose: 100.0 mg/kg/injection, schedule: Q04DX003 (ip), vehicle: saline 100 % of control | [4] 94 % of control | dose: 200.0 mg/kg/injection, schedule: Q04DX003 (ip), vehicle: saline 102 % of control | [5] 97 % of control | dose: 400.0 mg/kg/injection, schedule: Q04DX003 (ip), vehicle: saline 96 % of control

O=C(/C=N/O)Nc1ccccc1
inactive: [6] 101 % of control | dose: 200.0 mg/kg/injection, schedule: Q01DX009 (ip), vehicle: saline with Tween-80 101 % of control | dose: 400.0 mg/kg/injection, schedule: Q01DX009 (ip), vehicle: saline with Tween-80 98 % of control

CC(C)NCC(O)c1ccc(O)c(O)c1 (stereo unspecified)
inactive: dose: 50.0 mg/kg/injection, schedule: Q01DX009 (ip), vehicle: saline 103 % of control | [7] 105 % of control | [3] 108 % of control and 111 % of control | dose: 100.0 mg/kg/injection, schedule: Q01DX009 (ip), vehicle: saline 110 % of control | [8] 104 % of control | [9] 100 % of control | [4] 113 % of control | dose: 200.0 mg/kg/injection, schedule: Q01DX009 (ip), vehicle: saline 114 % of control | [10] 100 % of control | dose: 300.0 mg/kg/injection, schedule: Q01DX001 (ip), vehicle: saline 123 % of control | [11] 100 % of control

NC(=Nc1ccccc1)c1ccc(C(N)=Nc2ccccc2)cc1
inactive: dose: 15.0 mg/kg/injection, schedule: Q01DX Z (ip), vehicle: carboxymethylcellulose (CMC) 104 % of control | dose: 30.0 mg/kg/injection, schedule: Q01DX Z (ip), vehicle: carboxymethylcellulose (CMC) 98 % of control | dose: 60.0 mg/kg/injection, schedule: Q01DX Z (ip), vehicle: carboxymethylcellulose (CMC) 86 % of control

O=C(Nc1ccc(Cl)c(Cl)c1)Oc1cccc(NC(=S)Nc2ccccc2)c1
inactive: [3] 94 % of control | [4] 94 % of control | [5] 94 % of control

[N-]=[N+]=C1N=C(Br)N=C1c1n[nH]c(Br)n1
inactive: [12] 98 % of control | [13] 109 % of control | [14] 102 % of control

NN=C(c1ccccc1)c1ccccc1
inactive: dose: 1.3 mg/kg/injection, schedule: Q01DX009 (ip), vehicle: Klucel (hydroxypropylcellulose) (HPC) 103 % of control | dose: 2.61 mg/kg/injection, schedule: Q01DX009 (ip), vehicle: Klucel (hydroxypropylcellulose) (HPC) 94 % of control | dose: 5.23 mg/kg/injection, schedule: Q01DX009 (ip), vehicle: Klucel (hydroxypropylcellulose) (HPC) 94 % of control | dose: 10.46 mg/kg/injection, schedule: Q01DX009 (ip), vehicle: Klucel (hydroxypropylcellulose) (HPC) 86 % of control | dose: 25.0 mg/kg/injection, schedule: Q04DX003 (ip), vehicle: Klucel (hydroxypropylcellulose) (HPC) 97 % of control | dose: 41.87 mg/kg/injection, schedule: Q01DX009 (ip), vehicle: Klucel (hydroxypropylcellulose) (HPC) 91 % of control | dose: 50.0 mg/kg/injection, schedule: Q01DX001 (ip), vehicle: saline 96 % of control | [15] 92 % of control | dose: 83.7 mg/kg/injection, schedule: Q01DX009 (ip), vehicle: Klucel (hydroxypropylcellulose) (HPC) 98 % of control | dose: 100.0 mg/kg/injection, schedule: Q01DX001 (ip), vehicle: saline 96 % of control | [8] 111 % of control | dose: 200.0 mg/kg/injection, schedule: Q01DX001 (ip), vehicle: saline 100 % of control | dose: 400.0 mg/kg/injection, schedule: Q01DX001 (ip), vehicle: saline 96 % of control

CC[CH2][Sn]([CH2]C)([c]1ccccc1)[c]1ccccc1
inactive: [12] 97 % of control | [13] 106 % of control | [14] 101 % of control

CC(=O)Nc1cc(NC(C)=O)cc(N(CCO)CCO)c1
inactive: dose: 25.0 mg/kg/injection, schedule: Q01DX009 (ip), vehicle: water 97 % of control | dose: 50.0 mg/kg/injection, schedule: Q01DX009 (ip), vehicle: water 100 % of control | dose: 100.0 mg/kg/injection, schedule: Q01DX009 (ip), vehicle: water 106 % of control | dose: 400.0 mg/kg/injection, schedule: Q01DX009 (ip), vehicle: water 106 % of control

O=C(S)c1ccccc1.[Pb]
inactive: dose: 100.0 mg/kg/injection, schedule: Q04DX002 (ip), vehicle: saline with Tween-80 87 % of control | dose: 200.0 mg/kg/injection, schedule: Q04DX002 (ip), vehicle: saline with Tween-80 108 % of control

C/C(=C\c1ccc2c(c1)OCO2)[N+](=O)[O-]
inactive: dose: 25.0 mg/kg/injection, schedule: Q01DX009 (ip), vehicle: Klucel (hydroxypropylcellulose) (HPC) 97 % of control | dose: 50.0 mg/kg/injection, schedule: Q01DX009 (ip), vehicle: Klucel (hydroxypropylcellulose) (HPC) 89 % of control | dose: 50.0 mg/kg/injection, schedule: Q01DX009 (ip), vehicle: saline with Tween-80 108 % of control | [15] 94 % of control | [3] 98 % of control and 87 % of control | [6] 87 % of control | [8] 103 % of control | [10] 100 % of control | [11] 97 % of control

COCCNCCN1CCN(CCCN2c3ccccc3Sc3ccc(C(F)(F)F)cc32)CC1
inactive: dose: 6.25 mg/kg/injection, schedule: Q04DX003 (ip), vehicle: saline 110 % of control | dose: 12.5 mg/kg/injection, schedule: Q01DX009 (ip), vehicle: saline 107 % of control | dose: 12.5 mg/kg/injection, schedule: Q04DX003 (ip), vehicle: saline 96 % of control and 100 % of control | dose: 25.0 mg/kg/injection, schedule: Q01DX009 (ip), vehicle: saline 105 % of control | [1] 95 % of control and 105 % of control | [2] 102 % of control and 108 % of control

CSCCNC(=O)CS(=O)(=O)c1ccc(C)cc1
inactive: [16] 100 % of control | [17] 100 % of control | dose: 400.0 mg/kg/injection, schedule: Q04DX003 (ip), vehicle: saline with Tween-80 92 % of control

CCOC(=O)CC1C(C)C(C)NC(C)C1C (stereo unspecified)
inactive: [7] 94 % of control | [9] 103 % of control

Nc1nc2c(ncn2C2OC(COC(=O)c3ccc(Cl)cc3)C(OC(=O)c3ccc(Cl)cc3)C2OC(=O)c2ccc(Cl)cc2)c(=O)[nH]1 (stereo unspecified)
inactive: dose: 50.0 mg/kg/injection, schedule: Q01DX001 (ip), vehicle: carboxymethylcellulose (CMC) 95 % of control | dose: 100.0 mg/kg/injection, schedule: Q01DX001 (ip), vehicle: carboxymethylcellulose (CMC) 97 % of control | dose: 200.0 mg/kg/injection, schedule: Q01DX001 (ip), vehicle: carboxymethylcellulose (CMC) 91 % of control | dose: 400.0 mg/kg/injection, schedule: Q01DX001 (ip), vehicle: carboxymethylcellulose (CMC) 97 % of control

CC(C)CC1NC(=O)C(NC(=O)c2ncccc2O)C(C)OC(=O)C(c2ccccc2)N(C)C(=O)C(C)NC(=O)C(C(C)C(C)C)N(C)C(=O)CN(C)C(=O)C2CC(O)CN2C1=O (stereo unspecified) ({Picolinoyl(3-OH)}-TL[Hyp][Sar][X3]A[NMePhg]; ester 1-C; configuration not given here)
inactive: dose: 5.3 mg/kg/injection, schedule: Q01DX Z (ip), vehicle: saline 100 % of control | dose: 8.0 mg/kg/injection, schedule: Q01DX Z (ip), vehicle: saline 100 % of control | dose: 12.0 mg/kg/injection, schedule: Q01DX Z (ip), vehicle: saline 103 % of control | dose: 18.0 mg/kg/injection, schedule: Q01DX Z (ip), vehicle: saline 103 % of control and 109 % of control | dose: 36.0 mg/kg/injection, schedule: Q01DX Z (ip), vehicle: saline 97 % of control | dose: 72.0 mg/kg/injection, schedule: Q01DX Z (ip), vehicle: saline 103 % of control | dose: 144.0 mg/kg/injection, schedule: Q01DX Z (ip), vehicle: saline 106 % of control

O=C(Cl)c1ccc([N+](=O)[O-])cc1
inactive: [16] 102 % of control | [17] 101 % of control

Reference: PubChem BioAssay AID248 (DTP/NCI, 2004)
